Experimental data from ChEMBL document CHEMBL2203023, “Synopsis of some recent tactical application of bioisosteres in drug design” (J Med Chem, 2011).

What was measured:
[1] = molecular target: T1, Dolichol-phosphate-mannose synthase (Trypanosoma brucei brucei) (UniProt Q5QQ41); details: 1 mM
T1 sequence (whole entry): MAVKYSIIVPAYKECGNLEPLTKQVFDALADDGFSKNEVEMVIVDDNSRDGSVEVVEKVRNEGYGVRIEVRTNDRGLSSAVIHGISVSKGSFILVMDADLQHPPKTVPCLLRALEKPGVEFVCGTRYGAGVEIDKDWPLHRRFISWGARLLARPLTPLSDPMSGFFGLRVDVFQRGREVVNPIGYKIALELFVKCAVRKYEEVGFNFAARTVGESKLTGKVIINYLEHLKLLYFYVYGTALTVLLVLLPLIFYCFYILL

[2] = tested on: NCCCC(=O)O

Chain of 4-aminobutyrate aminotransferase, mitochondrial (Homo sapiens), P80404 (P80404 whole entry): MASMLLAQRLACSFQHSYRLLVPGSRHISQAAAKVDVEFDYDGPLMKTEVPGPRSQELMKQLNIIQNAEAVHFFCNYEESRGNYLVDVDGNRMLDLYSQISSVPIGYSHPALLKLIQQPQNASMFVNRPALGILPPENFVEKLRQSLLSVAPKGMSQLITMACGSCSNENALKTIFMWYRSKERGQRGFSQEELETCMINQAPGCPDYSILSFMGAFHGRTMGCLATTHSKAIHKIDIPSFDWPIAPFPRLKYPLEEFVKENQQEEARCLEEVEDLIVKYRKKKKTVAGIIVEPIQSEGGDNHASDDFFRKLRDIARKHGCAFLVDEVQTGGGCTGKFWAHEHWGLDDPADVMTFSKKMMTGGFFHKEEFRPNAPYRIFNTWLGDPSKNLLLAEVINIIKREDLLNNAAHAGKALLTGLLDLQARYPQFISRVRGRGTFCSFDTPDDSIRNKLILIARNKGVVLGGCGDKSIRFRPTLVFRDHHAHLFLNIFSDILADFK

Row | Molecule | inhibition [1] | Km [2]
1 | Nc1nc2c(ncn2[C@@H]2O[C@H](COP(=O)(O)OP(=O)(O)O)[C@@H](O)[C@H]2O)c(=O)[nH]1 | 8.5% | 
2 | Nc1nc2c(ncn2[C@@H]2O[C@H](CNc3c(NCc4ccccc4C(=O)O)c(=O)c3=O)[C@@H](O)[C@H]2O)c(=O)[nH]1 | 64% | 
3 | 4-aminobutyrate aminotransferase, mitochondrial (Homo sapiens), P80404 |  | 2500 µM
